In assay [1] the target is T1, human muscarinic M1 receptor (Homo sapiens, UniProt P11229).
T1 sequence (P11229 1-460): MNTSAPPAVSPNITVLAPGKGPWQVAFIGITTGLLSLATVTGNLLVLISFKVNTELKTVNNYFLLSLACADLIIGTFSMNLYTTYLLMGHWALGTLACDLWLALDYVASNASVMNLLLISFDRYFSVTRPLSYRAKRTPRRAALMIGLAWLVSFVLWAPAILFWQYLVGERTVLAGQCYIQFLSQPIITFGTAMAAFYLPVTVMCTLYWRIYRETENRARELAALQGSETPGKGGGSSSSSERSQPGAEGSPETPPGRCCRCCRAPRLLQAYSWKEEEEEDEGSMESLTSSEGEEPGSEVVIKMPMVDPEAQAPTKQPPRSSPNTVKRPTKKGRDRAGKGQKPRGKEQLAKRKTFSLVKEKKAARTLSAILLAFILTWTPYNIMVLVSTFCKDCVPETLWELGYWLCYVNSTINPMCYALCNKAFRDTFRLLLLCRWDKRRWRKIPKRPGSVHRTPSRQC
As to the kind of experiment: Alphascreen Surefire phospho-ERK1/2 functional assay, M1. In kind it is cell-based. Conditions: for EC50: CHO cells stably expressing human M1, read-out: pEC50 M1 (converted); for % Emax cf. ACh, M1: CHO cells stably expressing human M1, relative to ACh; for Emax: CHO, read-out: % Emax cf. ACh, M1, CHO cells stably expressing human M1, relative to ACh. The protocol: (§1) ERK1/2 phosphorylation is a downstream consequence of both Gq/11 and Gi/o protein coupled receptor activation, making it highly suitable for the assessment of M1, M3 (Gq/11 coupled) and M2, M4 receptors (Gi/o coupled), rather than using different assay formats for different receptor subtypes. CHO cells stably expressing the human muscarinic M1, M2, M3 or M4 receptor were plated (25K/well) onto 96-well tissue culture plates in MEM-alpha+10% dialysed FBS. Once adhered, cells were serum-starved overnight. Agonist stimulation was performed by the addition of 5 μL agonist to the cells for 5 min (37° C.). Media was removed and 50 μL of lysis buffer added. […] Plates were incubated for 2 h with gentle agitation in the dark and then read on a PHERAstar plate reader.
(§2) pEC50 and Emax figures were calculated from the resulting data for each receptor subtype.
In general terms: Bead proximity is the source of the signal in Alpha formats.

Assay [2] deals with T2, human muscarinic M4 receptor (Homo sapiens, UniProt P08173).
T2 construct: expressed in transfected cells
T2 sequence (P08173 1-479): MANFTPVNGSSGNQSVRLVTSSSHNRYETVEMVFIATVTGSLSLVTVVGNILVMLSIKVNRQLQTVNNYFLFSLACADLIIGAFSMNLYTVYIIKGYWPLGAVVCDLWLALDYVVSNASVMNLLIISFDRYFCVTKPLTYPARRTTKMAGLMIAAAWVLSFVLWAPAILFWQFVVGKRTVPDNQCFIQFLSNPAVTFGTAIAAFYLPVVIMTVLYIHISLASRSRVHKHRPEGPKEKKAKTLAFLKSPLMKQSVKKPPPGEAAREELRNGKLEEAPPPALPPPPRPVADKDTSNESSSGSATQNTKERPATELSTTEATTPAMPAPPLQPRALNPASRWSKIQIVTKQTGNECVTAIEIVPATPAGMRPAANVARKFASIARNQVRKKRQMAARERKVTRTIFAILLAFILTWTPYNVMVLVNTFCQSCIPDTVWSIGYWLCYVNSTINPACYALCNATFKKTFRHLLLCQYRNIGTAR
Nature of the assay: Alphascreen Surefire phospho-ERK1/2 functional assay, M4. In kind it is cell-based. The settings on record: for EC50: CHO cells stably expressing human M4, read-out: pEC50 M4 (converted); for % Emax cf. ACh, M4: CHO cells stably expressing human M4, relative to ACh; for Emax: CHO, read-out: % Emax cf. ACh, M4, CHO cells stably expressing human M4, relative to ACh. The protocol: as §1, §2

The results in this text go back to US12202843B2, “Muscarinic receptor agonists” (Nxera Pharma UK Limited, priority 2014, dated 2025).

In the case of `CCOC(=O)N1CC2CCC1CC2N1CCC2(CC1)CNC(=O)O2` (single isomer, unassigned) [Example 3-2 Isomer 2, ethyl 5-(2-oxo-1-oxa-3,8-diazaspiro[4.5]dec-8-yl)-2-azabicyclo[2.2.2]octane-2-carboxylate], in assay [1], the EC50 was 100 nM and the “% Emax cf. ACh, M1” value is 127%. For the same molecule, in assay [2], the EC50 was 398 nM and the “% Emax cf. ACh, M4” value amounted to 36%.
For the molecule `CCOC(=O)N1CC2CCC1CC2N1CCC2(CC1)OC(=O)NC2CC` (single isomer, unassigned) [Example 3-3 Isomer 2, ethyl 5-(4-ethyl-2-oxo-1-oxa-3,8-diazaspiro[4.5]dec-8-yl)-2-azabicyclo[2.2.2]octane-2-carboxylate], the EC50 in assay [1] is 794 nM; in assay [2] it was 316 nM. Besides, the Emax was 76% in assay [1] and 56% in assay [2].
`CCOC(=O)N1CC2CCC(C1)C2N1CCC2(CC1)CNC(=O)C2` (single isomer, unassigned) [Example 4-1 Isomer 2]: in assay [1], the EC50 is 501 nM and the Emax stood at 36%. Moreover, in assay [2], the EC50 was over 20000 nM and the maximum response (Emax) was found to be 3%.
`CCOC(=O)N1C2CCCC1CC(N1CCC3(CC1)CNC(=O)O3)C2` (single isomer, unassigned) [Example 5-4 Isomer 1]: the figures for the EC50 in assay [1] and in assay [2] were 398 nM and over 20000 nM, respectively. Also, the Emax in assay [1] turned out to be 76%. The “% Emax cf. ACh, M4” value in assay [2] (listed as 5-4 Isomer 1) amounted to 39%.
Consider `COC(=O)N1CC2CC(N3CCC4(CC3)CNC(=O)C4)CC1C2` (single isomer, unassigned) [Example 6-1 Isomer 1], for which the EC50 in assay [1] was 2510 nM. The “% Emax cf. ACh, M1” value in assay [1] (listed as 6-1 Isomer 1) stood at 78%. Further, in assay [2], the EC50 is over 20000 nM and the Emax came to 53%.
As to `CCOC(=O)N1C2CCC1CC(N1CCCC3(CC1)CNC(=O)O3)C2` (single isomer, unassigned) [Example 9-2 Isomer 1, ethyl 3-(2-oxo-1-oxa-3,8-diazaspiro[4.6]undec-8-yl)-8-azabicyclo[3.2.1]octane-8-carboxylate], the EC50 in assay [1] and in assay [2] was over 20000 nM throughout. Besides, the “% Emax cf. ACh, M1” value in assay [1] (listed as 9-2 Isomer 1) was 23%. The “% Emax cf. ACh, M4” value in assay [2] (listed as 9-2 Isomer 1) worked out at 13%.
Consider `CCOC(=O)N1C2CCC1CC(N1CCCC3(CC1)CNC(=O)O3)C2` (single isomer, unassigned) [Example 9-2 Isomer 2, ethyl 3-(2-oxo-1-oxa-3,8-diazaspiro[4.6]undec-8-yl)-8-azabicyclo[3.2.1]octane-8-carboxylate], for which the EC50 in assay [1] and in assay [2] was over 20000 nM throughout. The “% Emax cf. ACh, M1” value in assay [1] (listed as 9-2 Isomer 2) is on record as 18%. For the same molecule, the “% Emax cf. ACh, M4” value in assay [2] (listed as 9-2 Isomer 2) came to 8%.
As to `CCOC(=O)N1C2CCC1CC(N1CCCC3(CC1)CNC(=O)O3)C2` (single isomer, unassigned) [Example 9-2 Isomer 3, ethyl 3-(2-oxo-1-oxa-3,8-diazaspiro[4.6]undec-8-yl)-8-azabicyclo[3.2.1]octane-8-carboxylate], the EC50 in assay [1] is 501 nM; in assay [2] it was 79.4 nM. Moreover, in assay [1] (listed as 9-2 Isomer 3), the “% Emax cf. ACh, M1” value stood at 113%. For the same molecule, in assay [2] (listed as 9-2 Isomer 3), the “% Emax cf. ACh, M4” value came to 81%.
On to `CCOC(=O)N1C2CCC1CC(N1CCCC3(CC1)CNC(=O)O3)C2` (single isomer, unassigned) [Example 9-2 Isomer 4, ethyl 3-(2-oxo-1-oxa-3,8-diazaspiro[4.6]undec-8-yl)-8-azabicyclo[3.2.1]octane-8-carboxylate], for which the EC50 in assay [1] is 10 nM; in assay [2], 5.01 nM. In addition, in assay [1] (listed as 9-2 Isomer 4), the “% Emax cf. ACh, M1” value is on record as 103%. For the same molecule, in assay [2] (listed as 9-2 Isomer 4), the “% Emax cf. ACh, M4” value came out at 66%.

Usually Emax stands for the greatest response seen or fitted, relative to the assay's reference.
